Data published in article PMC11305387, “AlphaFold accelerated discovery of psychotropic agonists targeting the trace amine–associated receptor 1” (Science Advances, 2024).
Several values for one entry are separate records, joined by “and”; a condition that tells them apart may be missing. Equal values may be shown once. Read-outs that look alike come from different tables or passages of the source.

Experiments:
hTAAR1 = target: T1, hTAAR1 (Homo sapiens, UniProt Q96RJ0); experiment: G protein (mini-Gs) recruitment luminescence complementation assay, agonist mode; assay type: cell-based
T1 construct: expressed in transfected cells; host or cells: Expi293F
T1 sequence (Q96RJ0 1-339): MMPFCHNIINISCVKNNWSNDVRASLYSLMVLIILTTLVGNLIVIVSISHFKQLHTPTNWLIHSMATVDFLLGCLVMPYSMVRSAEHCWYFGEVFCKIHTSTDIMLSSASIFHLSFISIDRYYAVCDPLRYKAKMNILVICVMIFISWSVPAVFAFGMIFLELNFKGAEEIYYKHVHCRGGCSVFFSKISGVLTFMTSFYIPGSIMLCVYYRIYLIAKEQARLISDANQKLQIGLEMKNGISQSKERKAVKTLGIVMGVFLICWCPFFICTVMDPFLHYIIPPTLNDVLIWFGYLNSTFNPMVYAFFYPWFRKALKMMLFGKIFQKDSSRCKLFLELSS
Procedure: The 62 predicted ligands were purchased from commercial vendors and tested for activity at a concentration of 20 μM in a luminescence complementation–based assay measuring recruitment of mini-Gs to the human TAAR1 ([38]).
To monitor TAAR1 activation by compounds, we used our previously described system. […] Cells were then reseeded in solid white, 96-well plates (Corning) with 90 μl of cell suspension per well. Luminescence was read using a plate reader for 5 min (SPARK 10 M, Tecan) before the addition of compounds to ensure signal stability. Ten microliters of each compound diluted in DPBS was added, and luminescence from each well was read for 10 min, with 100-ms read time per well. The A2AR counter-screen was performed using the same protocol. In these experiments, the hTAAR1 was replaced by a C-terminally SmBiT-tagged hA2AR construct.

[1] = tested on: TAAR1-WT and TAAR1-KO mice; experiment: Core-body temperature (CBT) measurement; assay type: in vivo; conditions: TAAR1-KO mice, 1 mg/kg (fig. S13A)
Procedure: Core temperature was determined by a rectal thermoprobe. Compounds or vehicle was administered intraperitoneally. A basal measurement was performed immediately before injection. Measurements were repeated every 30 min for 2 hours. Mean changes in CBT were calculated by subtracting the value from vehicle treated group at the corresponding time point. A washout of 1 week between different doses of compound 65 was applied, and mice were injected starting with the lowest dose first.

WT and TAAR1-KO mice [2] = experiment: Pre-pulse inhibition (PPI) behavioral assay; assay type: in vivo; conditions: compound 65 1 mg/kg, risperidone 0.2 mg/kg i.p.
Procedure: Measurements were performed using startle response chambers (San Diego Instruments, San Diego, CA, USA). Each chamber is sound-isolated and contains a Plexiglass animal enclosure attached to a platform and a loudspeaker that can produce both continuous white noise and acoustic pulses of varying intensities. The animal enclosure is large enough for the animal to turn around and make other movements to reduce restraint stress. Mouse startle responses to acoustic stimuli are transformed by a piezoelectric transducer under the platform into an analog signal. The transducers were calibrated before each experiment using a standardization unit (San Diego Instruments, San Diego, CA, USA), and the speakers were calibrated using a Type 2670 Microphone Preamplifier, a Type 4230 Sound Level Calibrator, and a Type 2610 Measuring Amplifier (Brüel & Kjær, Nærum, Denmark). To habituate the mice to the chambers, they were placed in the enclosure for 5 min, with 65-dB background white noise, on three different days before the start of experiments. PPI measurements were then conducted on each mouse on four occasions separated by 96 hours. The first occasion was a mock test session where all mice were injected with vehicle, serving to reduce the effect of novelty on subsequent sessions. The next three sessions were true test sessions with injection of either compound 65, risperidone, or vehicle. The R package agricolae was used to generate a randomized block design, randomizing treatment order across sex, genotype, and test session.
Animals were brought to the testing room for habituation 60 min before the starting of tests. Thirty minutes before PPI measurements, mice were injected with either compound 65 (1 mg/kg), risperidone (0.2 mg/kg), or vehicle intraperitoneally. Each test session started with a 5-min background noise (65-dB white noise) habituation period. The background noise continued throughout the test session. The habituation period was followed by four blocks of trials, with the first and last blocks consisting of five pulse-only trials (40-ms, 120-dB pulse). During block 2, five trial types were presented five times each in a pseudo-randomized order. The trial types included pulse only, no stimulus (NOSTIM), and three different pre-pulse trials in which 20 ms pre-pulses of different intensities (68, 71, or 77 dB) preceded the startle pulse (120 dB) by a 100-ms interval. Block 3 contained the same numbers and types of trials as block 2, but in a different pseudorandom order. […] PPI data are shown as PPI%, which was calculated as [1 − (pre-pulse trials/startle-only trials)] × 100. Mean PPI was calculated by adding the average PPI% for all pre-pulse intensities (3, 6, and 12 dB) and dividing it by the number (i.e., 3) of pre-pulse intensities.

WT and TAAR1-KO mice [3] = experiment: Open-field test: baseline locomotion and MK-801-induced hyperlocomotion; assay type: in vivo; conditions: compound 65 1 mg/kg, risperidone 0.03 mg/kg
Procedure: To assess the influence of the compound on baseline locomotion and MK-801–induced hyperlocomotion, mice were subjected to open-field testing on four occasions separated by 96 hours. The first occasion was a mock test session where all mice were injected with vehicle only, serving to reduce the effect of novelty on subsequent sessions. The next three sessions were true test sessions with pretreatment of either compound 65, risperidone, or vehicle, followed by MK-801. The R package agricolae was used to generate a randomized block design, randomizing treatment order across sex, genotype, and test session. After injection with either compound 65 (1 mg/kg), risperidone (0.03 mg/kg), or vehicle intraperitoneally, mice were immediately placed in the open field and recorded for 15 min. They were then injected with MK-801 (0.35 mg/kg intraperitoneal) and recorded again for 60 min. The OFT arena measured 46 cm by 46 cm with gray floor and walls. The brightness at the center of each arena was 30 to 50 lux. The arenas were cleaned with 70% ethanol between each animal. Video from a camera mounted in the ceiling was analyzed using EthoVision XT11.5 (Noldus) software.

[4] = Tables S3A/S3B, compounds tested at 20 μM, relative to the maximal effect of β-PEA (20 µM)
[5] = TAAR1, G protein recruitment assay, read-out: pEC50 (converted)
[6] = relative to the effect of the reference agonist β-PEA, read-out: Emax

SMILES | Emax (hTAAR1; [4]) [%] | EC50 (hTAAR1; [5]) | Emax (hTAAR1; [6]) [%] | also measured
Cc1cccc(C2CCCN2)c1 (centres unmarked) [Compound 2] | 1.3 |  |  | 
Cc1nc(C(N)C(C)O)cs1.Cl.Cl (centres unmarked) [Compound 3] | 2.3 |  |  | 
Cl.Cl.c1cnc2c(c1)CNC2 [Compound 4] | 4.4 |  |  | 
Cc1c(C(C)N)sc2ccccc12.Cl (centres unmarked) [Compound 5] | 8.5 |  |  | 
CNC(C)c1nc2ccccc2s1 (centres unmarked) [Compound 6] | 8.8 |  |  | 
CC(N)c1cc2ccccc2s1 (centres unmarked) [Compound 7] | 14.7 |  |  | 
CCCN(CCC)C1CCc2cccc(O)c2C1 (centres unmarked) [Compound 8-OH-DPAT, 8-hydroxy-2-(di-n-propylamino)tetralin, reference compound] |  |  |  | CBT responsiveness [1]: validated the responsiveness of TAAR1-KO mice
Br.NCc1cccc2c(O)cccc12 [Compound 8] | 14.9 |  |  | 
NC1CSc2ccc(Br)cc21 (centres unmarked) [Compound 9] | 19.1 |  |  | 
CNCc1cc2sccc2n1C [Compound 11] | 40.4 |  |  | 
NCc1noc2ccc(F)cc12 [Compound 13] |  | 3.16 µM | 51.8 | 
C[C@H](N)c1coc2ccccc12 [Compound 14] |  | 7.94 µM | 54.3 | 
C[C@H](N)c1csc2ccccc12 [Compound 15] |  | 6.31 µM | 57.5 | 
C[C@@H](N)c1cc2ccccc2o1 [Compound 16] |  | 1.58 µM | 61.9 | 
NC[C@H]1Cc2cc(Br)ccc2O1 [Compound 17] |  | 6.31 µM | 67.8 | 
Cc1ccc(-c2cccc3c2CNCC3)o1 [Compound 18] |  | 0.631 µM | 68.7 | 
CN[C@H]1CCc2ccccc2C1 [Compound 19] |  | 3.98 µM | 74.5 | Emax at 20 µM (hTAAR1; [4]): 72.8%
N[C@H]1COc2cccc(Br)c2C1 [Compound 20] |  | 3.98 µM | 74.5 | 
Cc1cc2c(CCN)csc2s1 [Compound 21] |  | 3.16 µM | 75.2 | Emax at 20 µM (hTAAR1; [4]): 75.3%

SMILES | Emax (hTAAR1; [4]) [%] | EC50 (hTAAR1; [5]) | Emax (hTAAR1; [6]) [%] | also measured
CNCc1cccc2cccnc12 [Compound 22] |  | 3.16 µM | 78.5 | 
NCc1nsc2ccccc12 [Compound 23] |  | 3.98 µM | 79.2 | 
COc1cccc(C2=CCNC2)c1 [Compound 24] |  | 1.58 µM | 81.4 | Emax at 20 µM (hTAAR1; [4]): 81.8%
c1csc([C@H]2CCCNC2)n1 [Compound 25] |  | 1 µM | 95.3 | 
NC[C@H]1OCCc2sc(F)cc21 [Compound 26] |  | 1 µM | 95.5 | 
Cc1ccc([C@@H]2CNCCO2)o1 [Compound 27] |  | 0.251 µM | 98.7 | 
Cc1ccc2c(c1Br)CNC2 [Compound 28] |  | 0.398 µM | 103 | 
Brc1csc2c1CNCC2 [Compound 29] |  | 0.158 µM | 106 | 
CN1CCC(c2ccc(Br)cc2)C1 (centres unmarked) [Compound 33] | 0.6 |  |  | 
C[C@@H](NCC1CC1)c1coc2ccccc12 [Compound 35] | 0.9 |  |  | 
CC(CNCc1ncc[nH]1)c1ccncc1 (centres unmarked) [Compound 36] | 1.3 |  |  | 
CC(NCCO)c1cccc2c1OCO2 (centres unmarked) [Compound 38] | 3.5 |  |  | 
CCNCc1nc(-c2cccs2)cs1 [Compound 39] | 3.9 |  |  | 
CCN1CCc2ccccc2C(C)C1 (centres unmarked) [Compound 43] | 7.6 |  |  | 
OC(CNC[C@@H]1Cc2ccccc2CO1)C1CC1 (some centres unmarked) [Compound 44] | 10.0 |  |  | 
CN[C@@H](C)CNc1ncnc2sc(C)cc12 [Compound 46] | 18.8 |  |  | 
c1ccc2c(c1)COC2CNCc1ccn[nH]1 (centres unmarked) [Compound 47] | 21.0 |  |  | 
CN1CCC(c2c[nH]c3ccccc23)C1 (centres unmarked) [Compound 49] | 27.1 |  |  | 
CCN1CCCC(c2ccccc2)C1 (centres unmarked) [Compound 52] | 44.5 |  |  | 

SMILES | Emax (hTAAR1; [4]) [%] | EC50 (hTAAR1; [5]) | Emax (hTAAR1; [6]) [%] | also measured
c1ccc2cc(CNC3CC3)ccc2c1 [Compound 56] |  | 12.6 µM | 63 | 
CCNCc1cccc2c1OCO2 [Compound 57] |  | 5.01 µM | 73.2 | 
CC[C@@H](CNCC1=CCCOC1)c1ccccc1 [Compound 58] |  | 7.94 µM |  | Emax (hTAAR1; relative to the effect of the reference agonist β-PEA): 78.4%
CCNCc1cncc2ccccc12 [Compound 59] |  | 6.31 µM | 78.8 | 
CCNCc1cccc2ccoc12 [Compound 60] |  | 3.16 µM | 79.9 | 
c1ccc2c(c1)C[C@H]2CNCc1c[nH]cn1 [Compound 61] |  | 5.01 µM | 80.3 | 
Brc1cccc2c1CNCC2 [Compound 62] |  | 0.316 µM | 107 | 
c1coc(C2CNCCO2)c1 (centres unmarked) [Compound 64] |  | 0.398 µM |  | fold reduction of agonist potency versus compound 30 (hTAAR1; TAAR1 G protein recruitment): > 10 fold
Cn1cc(C2=CCCNC2)cn1 [Compound 66] |  | 2 µM |  | 
C1=C(c2ccccc2)CNCC1 [Compound 67] |  |  |  | EC50 (hTAAR1; pEC50, TAAR1, G protein recruitment assay): 0.0251 µM
COc1cccnc1C1=C(C)CCNC1 [Compound 69] |  | 3.16 µM |  | 
CC1=C(c2cc[nH]n2)CNCC1 [Compound 71] |  | 1.58 µM and 0.631 µM |  | 
CC1=C(c2ncco2)CNCC1 [Compound 74] |  | 0.631 µM |  | 
CC1=C(c2ccccn2)CNCC1 [Compound 75] |  | 0.501 µM |  | 
CC1=C(c2cccnn2)CNCC1 [Compound 76] |  | 50.1 µM and ~50.1 µM |  | 
CC1=C(c2ccncc2)CNCC1 [Compound 77] |  | 7.94 µM |  | 
Cc1nc2n(c(=O)c1CCN1CCC(c3noc4cc(F)ccc34)CC1)CCCC2 [risperidone, reference compound] |  |  |  | effect on PPI (WT and TAAR1-KO mice [2]; TAAR1-KO mice): increased PPI; effect on PPI (WT and TAAR1-KO mice [2]; WT mice): general augmentation in PPI compared to the vehicle control; effect on locomotion (WT and TAAR1-KO mice [3]; TAAR1-KO mice): significant reduction in locomotion; effect on MK-801–induced hyperlocomotion (WT and TAAR1-KO mice [3]; WT mice, MK-801 0.35 mg/kg): significant decrease; effect on baseline locomotion (WT and TAAR1-KO mice [3]; WT mice, versus vehicle): notable reduction
NCCc1ccccc1 [β-PEA, β-phenethylamine, reference compound] |  | 0.251 µM |  | Emax (hTAAR1): 100%
